{"source": "paper PMC8184911", "about": "“A small molecule HIF-1α stabilizer that accelerates diabetic wound healing” (Nature Communications, 2021)", "molecular_target": "T1, Von Hippel-Lindau (VHL) (Homo sapiens, UniProt P40337)", "T1 construct": "human recombinant VHL:ElonginB:ElonginC (VBC) complex; with ElonginB, ElonginC", "T1 sequence (P40337 whole entry)": "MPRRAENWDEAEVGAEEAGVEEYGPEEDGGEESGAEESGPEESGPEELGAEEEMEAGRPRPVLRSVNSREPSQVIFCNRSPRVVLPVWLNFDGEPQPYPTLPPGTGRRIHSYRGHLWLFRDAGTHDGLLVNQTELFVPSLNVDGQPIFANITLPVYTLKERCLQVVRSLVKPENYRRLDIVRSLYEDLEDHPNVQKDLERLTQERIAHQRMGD", "T1 sequence (Q15370 whole entry partner)": "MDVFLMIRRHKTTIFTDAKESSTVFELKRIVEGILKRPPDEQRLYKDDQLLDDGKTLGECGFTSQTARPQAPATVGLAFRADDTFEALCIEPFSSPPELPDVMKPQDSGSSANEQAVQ", "T1 sequence (Q15369 whole entry partner)": "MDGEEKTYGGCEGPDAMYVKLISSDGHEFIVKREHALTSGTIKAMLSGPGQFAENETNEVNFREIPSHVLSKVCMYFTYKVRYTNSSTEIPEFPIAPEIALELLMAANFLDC", "test": "fluorescence-based protein thermal shift assay of purified VBC ([…] VH298, positive control, shift ca. […] °C)", "format": "binding", "conditions": "read-out: fluorescence-based protein thermal shift assay of purified VBC (100 μM VH298, po)", "data": [{"smiles": "Cc1ncsc1-c1ccc(CNC(=O)[C@@H]2C[C@@H](O)CN2C(=O)[C@@H](NC(=O)C2(C#N)CC2)C(C)(C)C)cc1", "note": "[VH298, (2 S, 4 R)-1-((S)-2-(1-cyanocyclopropanecarboxamido)-3,3-dimethylbutanoyl)-4-hydroxy-N-(4-(4-methylthiazol-5-yl)benzyl) pyrrolidine-2-carboxamide]", "values": [{"measurement": "ΔTm at 100 µM", "value": "~5", "unit": "°C"}]}]}
